This note sets out measurements from publication PMC5350173, “Acute effects of N‐terminal progastrin fragments on gastric acid secretion in man” (Physiological Reports, 2017).

The series is described as follows: Plasma concentration of infused peptides by radioimmunoassay.

No end group written: not given here.

One may read the Cmax as the highest concentration seen after dosing. “SWKPRSQQPDAPLGTGANR [progastrin fragment 1‐19]”: where the note is “fragment 1‐19 at t150 in part F versus fragment 1‐35 in part D”, the “Plasma concentration relative to that of progastrin fragment 1‐35 in experiment D” value is “half”. The Cmax (human, plasma, iv, 268 pmol/kg/h, SEM) came out at 0.43 ± 0.0899 nM.
